Experimental data: US20040058880A1, “Aminoglycoside antibiotics as novel anti-infective agents” (priority 2002, published 2004)
Values after ≈ are worked out from the molar mass of the structure shown.

Experiments:
Test in all cases: In vitro antibacterial MIC, 96-well broth assay
P. aeruginosa PAO-1 = assay type: cell-based, Pseudomonas aeruginosa; details: growth by A595 after 24 h, 10^5-10^6 CFU/well; for MIC: Pseudomonas aeruginosa, PAO1
Experimental: (§1) In Vitro Antibacterial Activity Determination of Minimum Inhibitory Concentrations (MICs).
(§2) The assays are carried out in 96-well flat-bottom plates. The bacterial suspension from an overnight culture grown in appropriate medium is added to a solution of test compound in water. Final bacterial inoculums are approximately 10^5-10^6 CFU/well. The percent growth of bacteria in test wells relative to that observed for a well containing no compound is determined by measuring absorbance at 595 nm (A595) after 24 h. The MIC (μg/mL) is determined as a range of single compound where the complete inhibition of growth is observed at the higher concentration and cells are viable at the lower concentrations. Tobramycin is used as an antibiotic-positive control in each screening assay for Pseudomonas aeruginosa, Acinetobacter species, Streptococci viridans, Proteus species, Hemophilus influenzae, Citrobacter species, Serratia marcescens, Staphylococcus aureus, Streptococcus pyogenes, Escherichia coli, Enterobacter species, Enterococcus faecalis, Enterococcus faecium Klebsiella pneumoniae and Providencia stuartii.

P. aeruginosa ATCC 27853 = assay type: cell-based, Pseudomonas aeruginosa; details: growth by A595 after 24 h, 10^5-10^6 CFU/well; for MIC: Pseudomonas aeruginosa, ATCC27853
Experimental: as §1, §2

P. aeruginosa ATCC 35151 = assay type: cell-based, Pseudomonas aeruginosa; details: growth by A595 after 24 h, 10^5-10^6 CFU/well; for MIC: Pseudomonas aeruginosa, ATCC35151
Experimental: as §1, §2

[1] = system: S. aureus ATCC 33591 (MRSA); assay type: cell-based, Staphylococcus aureus; details: growth by A595 after 24 h, 10^5-10^6 CFU/well; for MIC: Staphylococcus aureus
Experimental: as §1, §2

[2] = system: S. aureus ATCC 29213 (MSSA); assay type: cell-based, Staphylococcus aureus; details: growth by A595 after 24 h, 10^5-10^6 CFU/well; for MIC: Staphylococcus aureus
Experimental: as §1, §2

E. faecalis ATCC 29212 = assay type: cell-based, Enterococcus faecalis; details: growth by A595 after 24 h, 10^5-10^6 CFU/well; for MIC: Enterococcus faecalis, ATCC29212
Experimental: as §1, §2

E. coli ATCC 25922 = assay type: cell-based, Escherichia coli; details: growth by A595 after 24 h, 10^5-10^6 CFU/well; for MIC: Escherichia coli, ATCC25922
Experimental: as §1, §2

Molecule	MIC (P. aeruginosa PAO-1)	MIC (P. aeruginosa ATCC 27853)	MIC (P. aeruginosa ATCC 35151)	MIC [1]	MIC [2]	MIC (E. faecalis ATCC 29212)	MIC (E. coli ATCC 25922)	MIC P. aeruginosa PAO-1 (P. aeruginosa PAO-1)	MIC P. aeruginosa ATCC 27853 (P. aeruginosa ATCC 27853)	MIC P. aeruginosa ATCC 35151 (P. aeruginosa ATCC 35151)	MIC S. aureus ATCC 33591 (MRSA) [1]	MIC S. aureus ATCC 29213 (MSSA) [2]	MIC E. faecalis ATCC 29212 (E. faecalis ATCC 29212)	MIC E. coli ATCC 25922 (E. coli ATCC 25922)
NC[C@H]1O[C@H](O[C@H]2[C@H](O)[C@@H](O[C@H]3O[C@H](CO)[C@@H](O)[C@H](N)[C@H]3O)[C@H](N)C[C@@H]2N)[C@H](N)C[C@@H]1O [Tobramycin, reference compound]	0.25 µg/mL (≈ 0.535 µM)	0.5 µg/mL (≈ 1.07 µM)	0.5 µg/mL (≈ 1.07 µM)	> 64 µg/mL	0.5 µg/mL (≈ 1.07 µM)	16 µg/mL (≈ 34.2 µM)	1 µg/mL (≈ 2.14 µM)	–	–	–	–	–	–	–
4-(2,6-diamino-2,3,6-dideoxy-α-D-glucopyranosyl)-6-(4-amino-4-deoxy-1-α-D-glucopyranosyl)-2-deoxystreptamine [Compound 3b]	–	–	–	–	–	–	–	8 µg/mL	16 µg/mL	16 µg/mL	>64 µg/mL	32 µg/mL	>64 µg/mL	32 µg/mL
NCCCCNCCCO[C@@H]1[C@@H](O)[C@H](O[C@H]2O[C@H](CN)[C@@H](O)C[C@H]2N)[C@@H](N)C[C@H]1N [Compound 19a]	> 32 µg/mL	> 32 µg/mL	> 32 µg/mL	> 32 µg/mL	> 32 µg/mL	> 32 µg/mL	> 32 µg/mL	–	–	–	–	–	–	–
NC[C@H]1O[C@H](O[C@H]2[C@H](OCC(O)CNCCCCNCC(O)CO[C@@H]3[C@@H](O)[C@H](N)C[C@H](N)[C@H]3O[C@H]3O[C@H](CN)[C@@H](O)C[C@H]3N)[C@@H](O)[C@H](N)C[C@@H]2N)[C@H](N)C[C@@H]1O (stereo partly drawn) [Compound 27a]	4 µg/mL (≈ 4.92 µM)	4 µg/mL (≈ 4.92 µM)	8 µg/mL (≈ 9.84 µM)	16 µg/mL (≈ 19.7 µM)	2 µg/mL (≈ 2.46 µM)	32 µg/mL (≈ 39.4 µM)	16 µg/mL (≈ 19.7 µM)	–	–	–	–	–	–	–
NC[C@H]1O[C@H](O[C@H]2[C@H](O)[C@@H](O[C@H]3O[C@H](CO)[C@@H](O)[C@H](O)[C@H]3N)[C@H](N)C[C@@H]2N)[C@H](N)C[C@@H]1O [Compound 3a, 4-(2,6-diamino-2,3,6-dideoxy-α-D-glucopyranosyl)-6-(2-amino-2-deoxy-1-α-D-glucopyranosyl)-2-deoxystreptamine]	0.5 µg/mL (≈ 1.07 µM)	1 µg/mL (≈ 2.14 µM)	1 µg/mL (≈ 2.14 µM)	> 64 µg/mL	1 µg/mL (≈ 2.14 µM)	16 µg/mL (≈ 34.2 µM)	2 µg/mL (≈ 4.28 µM)	–	–	–	–	–	–	–
NCC1OC(OC2C(N)CC(N)C(OC3OC(CO)C(O)C(OC4OC(CO)C(O)C(O)C4N)C3N)C2O)C(N)CC1O (stereo not drawn) [Compound 3d, 5-Amino-6-{3-amino-2-[4,6-diamino-3-(3-amino-6-aminomethyl-5-hydroxy-tetrahydro-pyran-2-yloxy)-2-hydroxy-cyclohexyloxy]-5-hydroxy-6-hydroxymethyl-tetrahydro-pyran-4-yloxy}-2-hydroxymethyl-tetrahydro-pyran-3,4-diol]	32 µg/mL (≈ 50.9 µM)	64 µg/mL (≈ 102 µM)	16 µg/mL (≈ 25.5 µM)	> 64 µg/mL	16 µg/mL (≈ 25.5 µM)	> 64 µg/mL	32 µg/mL (≈ 50.9 µM)	–	–	–	–	–	–	–
NC[C@H]1O[C@H](O[C@H]2[C@H](O)[C@@H](OCC(O)CNCCCCNCC(O)CO[C@@H]3[C@@H](O)[C@H](O[C@H]4O[C@H](CN)[C@@H](O)C[C@H]4N)[C@@H](N)C[C@H]3N)[C@H](N)C[C@@H]2N)[C@H](N)C[C@@H]1O (stereo partly drawn) [Compound 13a]	2 µg/mL (≈ 2.46 µM)	2 µg/mL (≈ 2.46 µM)	4 µg/mL (≈ 4.92 µM)	16 µg/mL (≈ 19.7 µM)	0.5 µg/mL (≈ 0.615 µM)	32 µg/mL (≈ 39.4 µM)	4 µg/mL (≈ 4.92 µM)	–	–	–	–	–	–	–
4-(2,6-diamino-2,3,6-dideoxy-α-D-glucopyranosyl)-6-(2-amino-2-deoxy-4-amino-4-deoxy-α-D-glucopyranosyl)-2-deoxystreptamine [Compound 3c]	–	–	–	–	–	–	–	1 µg/mL	2 µg/mL	1 µg/mL	>64 µg/mL	1 µg/mL	32 µg/mL	2 µg/mL
NCCCCNCC(O)CO[C@@H]1[C@@H](O)[C@H](O[C@H]2O[C@H](CN)[C@@H](O)C[C@H]2N)[C@@H](N)C[C@H]1N (stereo partly drawn) [Compound 14a]	16 µg/mL (≈ 35.5 µM)	32 µg/mL (≈ 71 µM)	16 µg/mL (≈ 35.5 µM)	> 64 µg/mL	8 µg/mL (≈ 17.8 µM)	> 64 µg/mL	16 µg/mL (≈ 35.5 µM)	–	–	–	–	–	–	–
N=C(N)NC[C@H]1O[C@H](O[C@H]2[C@H](O)[C@@H](O[C@H]3O[C@H](CO)[C@@H](O)[C@H](O)[C@H]3N)[C@H](N)C[C@@H]2N)[C@H](N)C[C@@H]1O [Compound 4a, 4-(2-amino-6-guanidinyl-2,3,6-dideoxy-α-D-glucopyranosyl)-6-(2-amino-2-deoxy-1-α-D-glucopyranosyl)-2-deoxystreptamine]	64 µg/mL (≈ 126 µM)	> 64 µg/mL	> 64 µg/mL	> 64 µg/mL	64 µg/mL (≈ 126 µM)	> 64 µg/mL	64 µg/mL (≈ 126 µM)	–	–	–	–	–	–	–
NC[C@H]1O[C@H](O[C@H]2[C@H](O)[C@@H](O[C@H]3O[C@H](CNC4CC4)[C@@H](O)[C@H](N)[C@H]3O)[C@H](N)C[C@@H]2N)[C@H](N)C[C@@H]1O [Compound 9a]	32 µg/mL (≈ 63.2 µM)	64 µg/mL (≈ 126 µM)	32 µg/mL (≈ 63.2 µM)	8 µg/mL (≈ 15.8 µM)	8 µg/mL (≈ 15.8 µM)	> 64 µg/mL	32 µg/mL (≈ 63.2 µM)	–	–	–	–	–	–	–
NC[C@H]1O[C@H](O[C@H]2[C@H](O)[C@@H](OCCCNCCCCNCCCO[C@@H]3[C@@H](O)[C@H](O[C@H]4O[C@H](CN)[C@@H](O)C[C@H]4N)[C@@H](N)C[C@H]3N)[C@H](N)C[C@@H]2N)[C@H](N)C[C@@H]1O [Compound 18a]	8 µg/mL (≈ 10.2 µM)	16 µg/mL (≈ 20.5 µM)	32 µg/mL (≈ 41 µM)	32 µg/mL (≈ 41 µM)	4 µg/mL (≈ 5.12 µM)	> 64 µg/mL	16 µg/mL (≈ 20.5 µM)	–	–	–	–	–	–	–
